Measurements reported in US7812014B2, “Bicyclic 6-alkylidene-penems as β-lactamase inhibitors” (priority 2002, dated 2010).
Structures can show the parent of a compound that is named as a salt. Where two headings read alike, the source gives them in different places.

Tests used:
[1] = biological target: class A β-lactamase TEM-1 (Escherichia coli, UniProt P62593); assay: IC50 determination, β-lactamase inhibition (nitrocefin, spectrophotometric); type: biochemical, E. coli; settings: enzyme 4.3 nM; 10 minutes preincubation at 25° C.; nitrocefin 50 μg/ml; pH 7.0
Sequence of class A β-lactamase TEM-1 (P62593 24-286 limits assumed): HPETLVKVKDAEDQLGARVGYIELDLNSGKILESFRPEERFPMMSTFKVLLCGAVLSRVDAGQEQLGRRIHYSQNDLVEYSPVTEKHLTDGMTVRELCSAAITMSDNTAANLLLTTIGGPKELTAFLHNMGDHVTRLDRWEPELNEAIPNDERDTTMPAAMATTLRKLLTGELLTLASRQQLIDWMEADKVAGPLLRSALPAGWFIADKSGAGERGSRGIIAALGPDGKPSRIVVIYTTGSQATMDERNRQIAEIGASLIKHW
Experimental: (§1) IC50 Determination for the Penem Inhibitor
(§2) β-Lactamase inhibitory activity of the penem inhibitors was determined spectrophotometrically as described by Bush et al., [Bush, K., Macalintal, C., Rasmussen, B. A., Lee, V. and Yang, Y. Antimicrobial Agents and Chemotherapy 1993, 37, 851]. Homogeneously purified class A β-lactamases TEM-1 from E. coli and Imi-1 from Enterobacter cloacae, class B enzyme CcrA from Bacteroides fragilis and class C enzyme AmpC from Enterobacter cloaca were employed in the assay. The enzyme concentrations for TEM-1, Imi-1, CcrA and AmpC were 4.3, 7.1, 1.2 and 2.1 nM, respectively. A wide range of inhibitor concentrations were prepared in 50 mM PO4, pH 7.0 to include the possible IC50 values. The substrate used to initiate the enzyme reaction was nitrocefin at 50 μg/ml in the same buffer as the inhibitor. Initially the enzyme and inhibitor (20 μl each) were preincubated for 10 minutes at 25° C. prior to the addition of 160 μl volume of nitrocefin. Initial rates of hydrolysis were monitored for 5 minutes at 495 nm using a Molecular Devices Spectra Max 250 with kinetic protocol of SoftMax Program. Readings from the Spectra Max 250 were exported and transferred to Microsoft Excel. The percent of inhibition of each inhibitor concentration was calculated based on the control enzyme activity. The inhibitor concentration that caused a 50% reduction in the enzymatic activity (IC50) was determined graphically.

[2] = biological target: class A β-lactamase Imi-1 (Enterobacter cloacae, UniProt Q46991); assay: as above; type: biochemical; settings: enzyme 7.1 nM; 10 minutes preincubation at 25° C.; nitrocefin 50 μg/ml; pH 7.0; read-out: IC50 (nM) Class A Imi
Sequence of class A β-lactamase Imi-1 (Q46991 28-292): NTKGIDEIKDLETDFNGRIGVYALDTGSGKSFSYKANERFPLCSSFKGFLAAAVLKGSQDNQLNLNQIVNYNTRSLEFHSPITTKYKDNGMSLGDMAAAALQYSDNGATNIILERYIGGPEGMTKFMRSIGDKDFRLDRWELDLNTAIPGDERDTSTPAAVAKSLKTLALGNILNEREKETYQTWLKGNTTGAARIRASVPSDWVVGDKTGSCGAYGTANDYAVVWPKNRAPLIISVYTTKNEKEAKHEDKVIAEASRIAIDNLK
Experimental: as §1, §2

class B enzyme CcrA = class B enzyme CcrA (Bacteroides fragilis, UniProt P25910); assay: as above; type: biochemical
Sequence of class B enzyme CcrA (P25910 19-249): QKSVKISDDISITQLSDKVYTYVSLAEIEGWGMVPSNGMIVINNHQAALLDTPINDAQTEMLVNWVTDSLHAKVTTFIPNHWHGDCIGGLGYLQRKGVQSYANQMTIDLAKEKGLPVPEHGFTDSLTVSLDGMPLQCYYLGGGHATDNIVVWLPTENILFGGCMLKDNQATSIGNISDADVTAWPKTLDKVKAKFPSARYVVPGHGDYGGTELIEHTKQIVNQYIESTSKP
Experimental: as §1, §2

class C enzyme AmpC = class C enzyme AmpC (Enterobacter cloacae, UniProt P05364); assay: biochemical; set-up: species or system Enterobacter cloaca
Sequence of class C enzyme AmpC (P05364 21-381): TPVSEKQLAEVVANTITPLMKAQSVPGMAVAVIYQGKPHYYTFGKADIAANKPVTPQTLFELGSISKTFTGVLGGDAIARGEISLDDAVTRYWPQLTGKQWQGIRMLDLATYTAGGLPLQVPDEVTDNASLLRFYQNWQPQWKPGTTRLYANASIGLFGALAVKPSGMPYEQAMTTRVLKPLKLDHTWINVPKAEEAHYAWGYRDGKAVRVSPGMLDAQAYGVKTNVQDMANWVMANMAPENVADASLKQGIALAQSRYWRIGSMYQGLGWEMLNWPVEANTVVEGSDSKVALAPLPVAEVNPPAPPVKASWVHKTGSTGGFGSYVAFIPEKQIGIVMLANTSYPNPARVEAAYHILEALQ
Experimental: as §1, §2

[3] = system: Clinical isolates that have been adapted to cause infection in mice; assay: In vivo antibacterial protection, 7 day survival of infected mice; set-up: species or system mice strain CD-1; settings: Mus musculus, 168 h
Description: In Vivo Antibacterial Protection
Female mice strain CD-1, approximately 18-22 grams, were received from Charles River Laboratories and quarantined 7 days prior to use. In addition, mice may be rendered neutropenic using cytoxan.
Clinical isolates that have been adapted to cause infection in mice, are used in the experiment, including infections with strains of E. coli, K. pneumoniae, M. morganii, E. cloacae, S. marcescens, C. freundii, staphylococci, streptococci, P. aeruginosa and N. gonorrhoeae.
Mice are challenged by injecting 0.5 ml intraperitoneally or 0.05 ml intranasally of a predetermined bacterial inoculum suspended in broth, saline or hog gastric mucin (supplemented with dried bovine hemoglobin for N. gonorrhoeae). […] Antibacterial doses (dose concentration prepared by two fold serial dilutions of the antibiotic) are dissolved or suspended in 0.2% aqueous agar or methocel, phosphate buffered saline or an adjuvant are administered orally, subcutaneously or intravenously in the following manner: • a) Orally or subcutaneously: Dose volume of 0.5 ml administered ½ hr after infection. A second dose may be administered 3 hr. after infection for treatment of infections with more virulent organisms. • b) Intravenously: Dose volume of 0.2 ml, administered ½ hr. after infection. For the treatment of infections with more virulent organisms, more doses, up to 48 hr may be administered. (Intravenous dosing will not exceed 3 doses/24 hr period.) • c) Oral pretreatment: Under special circumstances, the pH of the stomach needs to be adjusted in order to increase the gastric stability of the antibiotic. For this purpose, 0.5 ml of phosphate buffered saline (pH7.8, 0.06M) (or specific approved adjuvant) is administered orally ½ hr after infection, followed 5 minutes later by 0.5 ml of antibiotic (also orally) contained in phosphate buffered saline (pH7.8, 0.06M). Animal Species
A detailed explanation as to the number of animals needed for the determination of in vivo efficacy follows: • A) Novel antibiotics are tested at 5 different dose levels with 5 mice per dose level at each of three routes of administration (oral, subcutaneous and intravenous). […] This would require 25 mice/route with 3 routes/antibiotic or 75 mice per novel compound tested. One to two novel antibiotics will be tested per experiment (75-150 mice) • B) The effectiveness of the new compound must be compared to that of a standard, or antibiotic of known effectiveness. Known or previously tested antibiotics are tested at 5 dose levels with 5 mice per dose level by a single route of administration, for a total of 25 mice/antibiotic. Usually 3-6 antibiotics will be tested per experiment. (75-150 mice). • C) Untreated controls—In each of the above tests, untreated animals are infected with 3 different concentrations of bacterial inoculum with 10 mice per concentration (30 mice total in each and every test). These untreated controls are used to determine and maintain the infection level between 10-100 LD50s as required for test to test comparison and validity. Determination of Protective Effects of Antibacterial Agents:
The protective effects of the antibacterial agent(s) are measured by the survival of the infected untreated as compared to the treated animals. […] A census of survivors is taken twice daily and at that time dead as well as moribund animals are removed. […] The test is performed three times on separate days to provide a statistically valid number of animals and to minimize variation in test results on a day to day and test to test basis.

[4] = enzyme 1.2 nM, 10 minutes preincubation at 25° C., nitrocefin 50 μg/ml, pH 7.0, read-out: IC50 (nM) Class B Ccr
[5] = Ratio of Piperacillin vs. Inhibitor 4:1, read-out: ED50
[6] = Ratio of Piperacillin vs. Inhibitor not given, read-out: ED50
[7] = enzyme 2.1 nM, 10 minutes preincubation at 25° C., nitrocefin 50 μg/ml, pH 7.0, read-out: IC50 (nM) Class C AmpC

SMILES | IC50 [1] [nM] | IC50 [2] [nM] | IC50 (class B enzyme CcrA; [4]) [nM] | IC50 (class C enzyme AmpC) [nM] | ED50 [3, 5] [mg/kg] | ED50 [3, 6] [mg/kg] | IC50 (class C enzyme AmpC; [7]) [nM] | IC50 (class B enzyme CcrA) [nM]
O=C([O-])C1=CS[C@@H]2/C(=C\c3cc4n(n3)CCSC4)C(=O)N12.[Na+] [Example 11, (5R)(6Z)-6-(6,7-Dihydro-4H-pyrazolo[5,1-c][1,4]thiazin-2-ylmethylene)-7-oxo-4-thia-1-azabicyclo[3.2.0]hept-2-ene-2-carboxylic acid, sodium salt] | 1 | 18 | 61 | 1.2 | 13.9 |  |  | 
O=C([O-])C1=CS[C@@H]2/C(=C\c3cc4n(n3)CSC4)C(=O)N12.[Na+] [Example 12, (5R)(6Z)-7-Oxo-6-(4H-5-thia-1,6a-diazapentalen-2-ylmethylene)-4-thia-1-azabicyclo[3.2.0]hept-2-ene-2-carboxylic acid, sodium salt] | 1.4 | 56 | 110 | 1.5 | 20 |  |  | 
O=C([O-])C1=CS[C@@H]2/C(=C\c3cn4c(n3)CSC4)C(=O)N12.[Na+] [Example 13, (5R)(6Z)-6-(7H-Imidazo[1,2-c]thiazol-2-ylmethylene)-7-oxo-4-thia-1-azabicyclo[3.2.0]hept-2-ene-2-carboxylic acid, sodium salt] | 2.9 | 16 | 160 | 3.1 |  | 18 |  | 
CN1CCc2sc(C=C3C(=O)N4C(C(=O)O)=CSC34)cc2C1 (stereo not drawn) [Example 17, 6-(5-Methyl-4,5,6,7-tetrahydro-thieno[3,2-c]pyridin-2-ylmethylene)-7-oxo-4-thia-1-aza-bicyclo[3.2.0]hept-2-ene-2-carboxylic acid] | 12 | 24 | 28 |  | 37.9 |  | 26 | 
O=C(O)C1=CSC2C(=Cc3cn4c(n3)CCCCC4)C(=O)N12 (stereo not drawn) [Example 19, 7-Oxo-6-(6,7,8,9-tetrahydro-5H-imidazo[1,2-a]azepin-2-ylmethylene)-4-thia-1-aza-bicyclo[3.2.0]hept-2-ene-2-carboxylic acid] | 4.8 | 2700 | 170 |  | 59.2 |  | 4.6 | 
O=C(O)C1=CS[C@@H]2/C(=C\c3cc4n(n3)CCS(=O)(=O)C4)C(=O)N12 [Example 24, (5R),(6Z)-6-(5,5-Dioxo-4,5,6,7-tetrahydro-5λ^6-pyrazolo[5,1-c][1,4]thiazin-2-ylmethylene)-7-oxo-4-thia-1-azabicyclo[3.2.0]hept-2-ene-2-carboxylic acid, sodium salt] | 1.1 | 56 |  |  |  | 64 | 1.5 | 4
O=C(O)C1=CS[C@@H]2/C(=C\c3cc4n(n3)CCNC4)C(=O)N12 [Example 25, (5R),(6Z)-7-Oxo-6-(4,5,6,7-tetrahydropyrazolo[1,5-a]pyrazin-2-ylmethylene)-4-thia-1-aza-bicyclo[3.2.0]hept-2-ene-2-carboxylic acid, sodium salt] | 1.1 | 123 | 162 |  |  | 30 | 2.7 | 
CC1(C)Cc2cc(/C=C3/C(=O)N4C(C(=O)[O-])=CS[C@H]34)nn2C1.[Na+] [Example 26, (5R)(6Z)-6-(5,5-Dimethyl-4H-1,6a-diazapentalen-2-ylmethylene)-7-oxo-4-thia-1-azabicyclo[3.2.0]hept-2-ene-2-carboxylic acid, sodium salt] | 0.73 | 54 | 89 | 2.3 |  | 30 |  | 
O=C(O)C1=CS[C@@H]2/C(=C\c3cc4c(o3)CCC4)C(=O)N12 [Example 27, (5R),(6Z)-6-(5,6-Dihydro-4H-cyclopenta[b]furan-2-ylmethylene)-7-oxo-4-thia-1-azabicyclo[3.2.0]hept-2-ene-2-carboxylic acid, sodium salt] | 2 | 5.5 | 73 |  |  | 28 | 2 | 
